molecular target: phosphorylated active hERK2 enzyme (Homo sapiens (Human), UniProt P28482); experiment: Active Human ERK2 (hERK2) Activity Assay (IMAP-FP); format: biochemical; details: Table 6, 0.5 nM hERK2, 30 μM ATP, 10 point titration, read-out: AERK2 IC50
Outline: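 IMAP fluorescence-polarization kinase assay: 0.5 nM activated hERK2 with 900 nM unlabeled plus 80 nM labeled peptide and 30 μM ATP, reacted 60 min. Quenched with IMAP beads in binding buffer with 24 mM NaCl; FP read after 60 min equilibration.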

Sequence of phosphorylated active hERK2 enzyme (P28482 whole entry): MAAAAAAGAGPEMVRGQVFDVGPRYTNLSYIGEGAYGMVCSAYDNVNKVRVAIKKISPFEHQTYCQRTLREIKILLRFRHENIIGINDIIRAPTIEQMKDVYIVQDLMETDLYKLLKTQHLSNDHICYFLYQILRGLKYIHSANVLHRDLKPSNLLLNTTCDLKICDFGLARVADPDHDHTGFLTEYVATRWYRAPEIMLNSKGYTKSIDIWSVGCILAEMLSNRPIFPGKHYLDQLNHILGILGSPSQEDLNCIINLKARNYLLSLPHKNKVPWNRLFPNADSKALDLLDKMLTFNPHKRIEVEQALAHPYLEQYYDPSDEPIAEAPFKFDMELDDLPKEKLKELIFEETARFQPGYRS

SMILES | IC50
O=C(Nc1cc2[nH]nc(Nc3ccccc3Cl)c2cn1)N[C@@H]1CCCOc2ccccc21 [Example 119, 1-{3-[(2-chlorophenyl)-amino]-1H-pyrazolo[4,3-c]pyridin-6-yl}-3-[(5R)-2,3,4,5-tetrahydro-1-benzoxepin-5-yl]urea] | 60.1 nM
COC[C@@H](NC(=O)Nc1cc2[nH]nc(Nc3ccccc3Cl)c2cn1)c1ccccc1 [Example 120, 1-{3-[(2-chlorophenyl)-amino]-1H-pyrazolo[4,3-c]pyridin-6-yl}-3-[(1S)-2-methoxy-1-phenylethyl]urea] | 27.2 nM
COc1ccccc1Nc1n[nH]c2cc(NC(=O)N[C@H](C)c3ccccc3)ncc12 [Example 121, 1-{3-[(2-methoxyphenyl)amino]-1H-pyrazolo[4,3-c]pyridin-6-yl}-3-[(1R)-1-phenylethyl]urea] | 24.5 nM
COC[C@@H](NC(=O)Nc1cc2[nH]nc(Nc3ccccc3OC)c2cn1)c1ccccc1 [Example 122, 1-{3-[(2-methoxyphenyl)-amino]-1H-pyrazolo[4,3-c]pyridin-6-yl}-3-[(1S)-2-methoxy-1-phenylethyl]urea] | 8.4 nM
C[C@@H](NC(=O)Nc1cc2[nH]nc(N3CCc4ncsc4C3)c2cn1)c1ccccc1 [Example 123, 1-[3-(6,7-dihydro[1,3]thiazolo-[5,4-c]pyridin-5(4H)-yl)-1H-pyrazolo[4,3-c]pyridin-6-yl]-3-[(1R)-1-phenylethyl]urea] | 0.4 nM
CC(C)(O)[C@@H](NC(=O)Nc1cc2[nH]nc(N3CCc4ncsc4C3)c2cn1)c1ccccc1 [Example 124, 1-[3-(6,7-dihydro[1,3]thiazolo-[5,4-c]pyridin-5(4H)-yl)-1H-pyrazolo[4,3-c]pyridin-6-yl]-3-[(1S)-2-hydroxy-2-methyl-1-phenylpropyl]urea] | 0.3 nM
CC(C)(O)[C@@H](NC(=O)Nc1cc2[nH]nc(N3CCc4ncsc4C3)c2cn1)c1ccc(F)cc1 [Example 125, 1-[3-(6,7-dihydro[1,3]thiazolo-[5,4-c]pyridin-5(4H)-yl)-1H-pyrazolo[4,3-c]pyridin-6-yl]-3-[(1S)-1-(4-fluorophenyl)-2-hydroxy-2-methylpropyl]urea] | 0.4 nM
Cn1cc2c(n1)CCN(c1n[nH]c3cc(NC(=O)N[C@@H](c4ccc(F)cc4)C(C)(C)O)ncc13)C2 [Example 126, 1-[(1S)-1-(4-fluorophenyl)-2-hydroxy-2-methylpropyl]-3-(2′-methyl-2,′4,′6,′7′-tetrahydro-1H-3,5′-bipyrazolo[4,3-c]pyridin-6-yl)urea] | 0.2 nM
COC[C@@H](NC(=O)Nc1cc2[nH]nc(N3CCc4ncsc4C3)c2cn1)c1ccccc1 [Example 127, 1-[3-(6,7-dihydro[1,3]-thiazolo[5,4-c]-pyridin-5(4H)-yl)-1H-pyrazolo[4,3-c]pyridin-6-yl]-3-[(1S)-2-methoxy-1-phenylethyl]urea] | 0.3 nM
C[C@@H](NC(=O)Nc1cc2[nH]nc(NC(=O)N3CC(F)(F)C3)c2cn1)c1ccc(F)cc1 [Example 128, 3,3-difluoro-N-[6-({[(1R)-1-(4-fluorophenyl)ethyl]carbamoyl}amino)-1H-pyrazolo[4,3-c]pyridin-3-yl]-azetidine-1-carboxamide] | 3.4 nM
CC(C)(O)[C@@H](NC(=O)Nc1cc2[nH]nc(NC(=O)N3CC(F)(F)C3)c2cn1)c1ccc(F)cc1 [Example 129, 3,3-difluoro-N-[6-({[(1S)-1-(4-fluorophenyl)-2-hydroxy-2-methylpropyl]-carbamoyl}amino)-1H-pyrazolo[4,3-c]pyridin-3-yl]-azetidine-1-carboxamide] | 0.4 nM
CC(C)(O)[C@@H](NC(=O)Nc1cc2[nH]nc(NC(=O)N3CCC3)c2cn1)c1ccc(F)cc1 [Example 130, N-[6-({[(1S)-1-(4-fluorophenyl)-2-hydroxy-2-methylpropyl]-carbamoyl}amino)-1H-pyrazolo[4,3-c]pyridin-3-yl]-azetidine-1-carboxamide] | 0.5 nM

Source: patent publication US9233979B2, “Compounds that are ERK inhibitors” (Merck Sharp & Dohme Corp., priority 2012, dated 2016)
